Each molecule was assayed against Factor D (Homo sapiens (Human), UniProt P00746) (assay: Factor D esterolytic assay (Z-Lys-SBzl substrate, DTNB, 405 nm)). Conditions: Z-Lys-SBzl 1.29 mM, pH 7.5, 10% DMSO, tested a minimum of three times, read-out: Measured Ki (IC50) Value for Compounds: IC50.
Assay type: biochemical
Summary of the method: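 Human Factor D ([…]) with 1.29 mM Z-Lys-SBzl in 100 mM HEPES, 500 mM NaCl, pH 7.5, 10% DMSO; substrate added immediately or after room-temperature preincubation. Released thiol reacted with DTNB, rate followed at 405 nm for 600 sec, 690 nm background subtracted. IC50 from percent inhibition versus uninhibited rate, n≥3.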

Chain of Factor D (P00746 26-253): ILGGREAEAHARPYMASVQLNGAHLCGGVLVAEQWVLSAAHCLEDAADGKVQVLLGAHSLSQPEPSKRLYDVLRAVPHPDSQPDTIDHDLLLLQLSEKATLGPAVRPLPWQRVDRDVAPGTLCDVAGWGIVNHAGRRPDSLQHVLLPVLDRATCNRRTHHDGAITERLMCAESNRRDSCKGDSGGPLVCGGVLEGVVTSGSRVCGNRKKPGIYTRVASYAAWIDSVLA

First: COC(=O)Cc1ccccc1NC(=O)c1nc(-c2cccc(CN)c2)nc2c1CCC2 [Compound 2e, methyl 2-(2-(2-(3-(aminomethyl)phenyl)-6,7-dihydro-5H-cyclopenta[d]pyrimidine-4-carboxamido)phenyl)acetate]
Second: NCc1cccc(-c2nc(C(=O)Nc3ccccc3CC(=O)O)nc3c2COC3)c1 [Compound 48h, 2-(2-(4-(3-(aminomethyl)phenyl)-5,7-dihydrofuro[3,4-d]pyrimidine-2-carboxamido)phenyl)acetic acid]
The IC50 of the first is higher: over 10000 nM for the first, 1000 to 10000 nM for the second. The second is the more potent here.

`CC(C)n1ccc2c(-c3cccc(CN)c3F)cc(COc3cc(F)ccc3CC(=O)O)cc21` [Compound 450b, 2-(2-((4-(3-(aminomethyl)-2-fluorophenyl)-1-isopropyl-1H-indol-6-yl)methoxy)-4-fluorophenyl)acetic acid] and `NCc1cccc(-c2cc(COc3cc(F)ccc3CC(=O)O)cc3ccoc23)c1F` [Compound 363b, 2-(2-((7-(3-(aminomethyl)-2-fluorophenyl)benzofuran-5-yl)methoxy)-4-fluorophenyl)acetic acid] cannot be ordered by IC50: under 1000 nM for the first, under 1000 nM for the second.

Compared with `CCOC(=O)Cc1ccccc1NC(=O)c1cc(-c2cccc(CN)c2)c2occc2c1` [Compound 15c, ethyl 2-(2-(7-(3-(aminomethyl)phenyl)benzofuran-5-carboxamido)phenyl)acetate], `Cc1ccc(CC(=O)O)c(OCc2cc(-c3cccc(CN)c3)c3occc3c2)c1C` [Compound 292f, 2-(2-((7-(3-(aminomethyl)phenyl)benzofuran-5-yl)methoxy)-3,4-dimethylphenyl)acetic acid] is lower in IC50: over 10000 nM for the first, under 1000 nM for the second. The second is the more potent here.

`CCc1ccc(CC(=O)O)c(OCc2cc(-c3cccc(CN)c3)c3oc(F)cc3c2)c1` [Compound 469g, 2-(2-((7-(3-(aminomethyl)phenyl)-2-fluorobenzofuran-5-yl)methoxy)-4-ethylphenyl)acetic acid] and `NCc1cccc(-c2cc(COc3cc(C(N)=O)ccc3CC(=O)O)cc3cc(CO)oc23)c1` [Compound 424d, 2-(2-((7-(3-(aminomethyl)phenyl)-2-(hydroxymethyl)benzofuran-5-yl)methoxy)-4-carbamoylphenyl)acetic acid] cannot be ordered by IC50: under 1000 nM for the first, under 1000 nM for the second.

`NCc1cccc(-c2c(F)c(COc3ccccc3CC(=O)O)cc3ccoc23)c1` [Compound 473e, 2-(2-((7-(3-(aminomethyl)phenyl)-6-fluorobenzofuran-5-yl)methoxy)phenyl)acetic acid] and `NCc1cccc(-c2cc(COc3cccc(F)c3CC(=O)O)cc3ccoc23)c1` [Compound 328f, 2-(2-((7-(3-(aminomethyl)phenyl)benzofuran-5-yl)methoxy)-6-fluorophenyl)acetic acid] cannot be ordered by IC50: under 1000 nM for the first, under 1000 nM for the second.

First: Cn1ccc2cc(COc3ccccc3CC(=O)O)cc(-c3cccc(CN)c3)c21 [Compound 218f, 2-(2-((7-(3-(aminomethyl)phenyl)-1-methyl-1H-indol-5-yl)methoxy)phenyl)acetic acid]
Second: NCc1cccc(-c2cc(COc3ccccc3CC(=O)O)cc3sccc23)c1 [Compound 116f, 2-(2-((4-(3-(aminomethyl)phenyl)benzo[b]thiophen-6-yl)methoxy)phenyl)acetic acid]
The IC50 of the first is higher: over 10000 nM for the first, under 1000 nM for the second.

`NCc1cccc(-c2cc(COc3ccccc3CC(=O)O)cc3cc(CNC(=O)c4ccc(F)cc4F)oc23)c1` [Compound 297c, 2-(2-((7-(3-(aminomethyl)phenyl)-2-((2,4-difluorobenzamido)methyl)benzofuran-5-yl)methoxy)phenyl)acetic acid] and `NCc1cccc(-c2cc(COc3ccccc3CC(=O)O)cc3cc(CN)oc23)c1` [Compound 406e, 2-(2-((2-(aminomethyl)-7-(3-(aminomethyl)phenyl)benzofuran-5-yl)methoxy)phenyl)acetic acid] cannot be ordered by IC50: under 1000 nM for the first, under 1000 nM for the second.

`CC(=O)Nc1ccc(CC(=O)O)c(OCc2cc(-c3cccc(CN)c3)c3oc(CO)cc3c2)c1` [Compound 421e, 2-(4-acetamido-2-((7-(3-(aminomethyl)phenyl)-2-(hydroxymethyl)benzofuran-5-yl)methoxy)phenyl)acetic acid] and `CN(C)Cc1cc2cc(COc3ccccc3CC(=O)O)cc(-c3cccc(CN)c3)c2o1` [Compound 141c, 2-(2-((7-(3-(aminomethyl)phenyl)-2-((dimethylamino)methyl)benzofuran-5-yl)methoxy)phenyl)acetic acid] cannot be ordered by IC50: under 1000 nM for the first, under 1000 nM for the second.

First: NCc1cccc(-c2cc(COc3ccc(Br)cc3CC(=O)O)cc3ccoc23)c1 [Compound 208d, 2-(2-((7-(3-(aminomethyl)phenyl)benzofuran-5-yl)methoxy)-5-bromophenyl)acetic acid]
Second: NCc1cncc(-c2cc(COc3ccccc3CC(=O)O)cc3ccoc23)c1 [Compound 106c, 2-(2-((7-(5-(aminomethyl)pyridin-3-yl)benzofuran-5-yl)methoxy)phenyl)acetic acid]
The IC50 of the first is lower: under 1000 nM for the first, 1000 to 10000 nM for the second. The first is the more potent here.

`COCc1cc2cc(COc3cc(C(N)=O)ccc3CC(=O)O)cc(-c3cccc(CN)c3F)c2o1` [Compound 439c, 2-(2-((7-(3-(aminomethyl)-2-fluorophenyl)-2-(methoxymethyl)benzofuran-5-yl)methoxy)-4-carbamoylphenyl)acetic acid] and `COCc1cc2cc(COc3cc(C)ccc3CC(=O)O)cc(-c3cccc(C(N)CF)c3)c2o1` (single isomer, unassigned; (+)) [Compound 455c, (+)-2-(2-((7-(3-(1-amino-2-fluoroethyl)phenyl)-2-(methoxymethyl)benzofuran-5-yl)methoxy)-4-methylphenyl)acetic acid] cannot be ordered by IC50: under 1000 nM for the first, under 1000 nM for the second.

`NCc1cccc(-c2cc(C(=O)Nc3ccccc3CC(=O)O)c(F)c3ccoc23)c1F` [Compound 246b, 2-(2-(7-(3-(aminomethyl)-2-fluorophenyl)-4-fluorobenzofuran-5-carboxamido)phenyl)acetic acid] and `Cc1ccc2c(C(=O)Nc3ccccc3CC(=O)O)nc(-c3cccc(CN)c3F)nn12` [Compound 161e, 2-(2-(2-(3-(aminomethyl)-2-fluorophenyl)-7-methylpyrrolo[2,1-f][1,2,4]triazine-4-carboxamido)phenyl)acetic acid] cannot be ordered by IC50: under 1000 nM for the first, under 1000 nM for the second.

`NCc1nccc(-c2cc(COc3c(F)cccc3CC(=O)O)cc3ccoc23)c1F` [Compound 510d, 2-(2-((7-(2-(aminomethyl)-3-fluoropyridin-4-yl)benzofuran-5-yl)methoxy)-3-fluorophenyl)acetic acid] and `NCc1cccc(-c2cc(COc3ccccc3CC(=O)O)cc3ccoc23)n1` [Compound 79c, 2-(2-((7-(6-(aminomethyl)pyridin-2-yl)benzofuran-5-yl)methoxy)phenyl)acetic acid] cannot be ordered by IC50: under 1000 nM for the first, under 1000 nM for the second.

`COCCOCCOCCOCc1cc2cc(COc3ccccc3CC(=O)O)cc(-c3cccc(CN)c3)c2o1` [Compound 344f, 2-(2-((7-(3-(aminomethyl)phenyl)-2-(2,5,8,11-tetraoxadodecyl)benzofuran-5-yl)methoxy)phenyl)acetic acid] and `NCc1cccc(-c2cc(COc3ccccc3CC(=O)O)cc3cc(COCc4cccnc4)oc23)c1` [Compound 302f, 2-(2-((7-(3-(aminomethyl)phenyl)-2-((pyridin-3-ylmethoxy)methyl)benzofuran-5-yl)methoxy)phenyl)acetic acid] cannot be ordered by IC50: under 1000 nM for the first, under 1000 nM for the second.

Compared with `N[C@H](CO)c1cccc(-c2cc(COc3ccccc3CC(=O)O)cc3ccoc23)c1` [Compound 59d, (S)-2-(2-((7-(3-(1-amino-2-hydroxyethyl)phenyl)benzofuran-5-yl)methoxy)phenyl)acetic acid], `N[C@@H](c1cc(-c2cc(COc3ccccc3CC(=O)O)cc3ccoc23)ccn1)C(F)(F)F` [Compound 381e, (S)-2-(2-((7-(2-(1-amino-2,2,2-trifluoroethyl)pyridin-4-yl)benzofuran-5-yl)methoxy)phenyl)acetic acid] is higher in IC50: under 1000 nM for the first, over 10000 nM for the second. The first is the more potent here.

Compared with `NCc1cccc(-c2cc(NC(=O)[C@@H]3CCCN3C(=O)NCc3cccc(Cl)c3F)cc3ccoc23)c1` [Compound 507f, (S)—N2-(7-(3-(aminomethyl)phenyl)benzofuran-5-yl)-N1-(3-chloro-2-fluorobenzyl)pyrrolidine-1,2-dicarboxamide], `Nc1c[nH]c2c(-c3cc(COc4ccccc4CC(=O)O)cc4ccoc34)cccc12` [Compound 341e, 2-(2-((7-(3-amino-1H-indol-7-yl)benzofuran-5-yl)methoxy)phenyl)acetic acid] is lower in IC50: 1000 to 10000 nM for the first, under 1000 nM for the second. The second is the more potent here.

`Cc1ccc(CC(=O)O)c(OCc2cc(-c3ccnc(CN)c3)c3ccn(C(C)C)c3c2)c1` [Compound 354c, 2-(2-((4-(2-(aminomethyl)pyridin-4-yl)-1-isopropyl-1H-indol-6-yl)methoxy)-4-methylphenyl)acetic acid] and `CC(C)S(=O)(=O)n1ccc2c(-c3ccnc(CN)c3)cc(COc3ccccc3CC(=O)O)cc21` [Compound 233c, 2-(2-((4-(2-(aminomethyl)pyridin-4-yl)-1-(isopropylsulfonyl)-1H-indol-6-yl)methoxy)phenyl)acetic acid] cannot be ordered by IC50: under 1000 nM for the first, under 1000 nM for the second.

`NCc1cc(-c2cc(COc3ccccc3CC(=O)O)cc3ccsc23)ccn1` [Compound 310c, 2-(2-((7-(2-(aminomethyl)pyridin-4-yl)benzo[b]thiophen-5-yl)methoxy)phenyl)acetic acid] and `NCc1cc(-c2cc(COc3ccccc3CC(=O)O)cc3[nH]ccc23)ccn1` [Compound 211e, 2-(2-((4-(2-(aminomethyl)pyridin-4-yl)-1H-indol-6-yl)methoxy)phenyl)acetic acid] cannot be ordered by IC50: under 1000 nM for the first, under 1000 nM for the second.

`NCc1cc(-c2cc(COc3ccccc3CC(=O)O)cc3c2ccn3C(F)(F)F)ccn1` [Compound 532d, 2-(2-((4-(2-(aminomethyl)pyridin-4-yl)-1-(trifluoromethyl)-1H-indol-6-yl)methoxy)phenyl)acetic acid] and `COc1ccc(CC(=O)O)c(OCc2cc(-c3ccnc(CN)c3)c3oc(F)cc3c2)c1` [Compound 492b, 2-(2-((7-(2-(aminomethyl)pyridin-4-yl)-2-fluorobenzofuran-5-yl)methoxy)-4-methoxyphenyl)acetic acid] cannot be ordered by IC50: under 1000 nM for the first, under 1000 nM for the second.

Source: patent US11370774B2, “Substituted benzofuran, benzopyrrole, benzothiophene, and structurally related complement inhibitors” (BioCryst Pharmaceuticals, Inc., priority 2018, dated 2022)
